Measurements published in patent US6180656A, “Use of condensated (hetaryl-substituted) 1-benzal-3-pyrazol derivates for treating special diseases of the cardiovascular and the central nervous systems” (Bayer Aktiengesellschaft, priority 1996, dated 2001).

Tests used:
[1] = molecular target: T1, soluble guanylate cyclase (Sus scrofa, UniProt A0A4X1U7N1+A0ACM8Q7I6); assay: Stimulation of soluble guanylate cyclase in primary endothelial cells (intracellular cGMP, radioimmunological); assay type: cell-based; conditions: 10 min, test substance 1 μM, primary endothelial cells from pig aorta, NOSYNTH, stimulation buffer with or without NO donor (SNP 1 μM), read-out: % cGMP increase (NOSYNTH)
T1 construct: endogenous in cells; host or cells: primary endothelial cells from pig aorta
T1 sequence (A0A4X1U7N1 1-619): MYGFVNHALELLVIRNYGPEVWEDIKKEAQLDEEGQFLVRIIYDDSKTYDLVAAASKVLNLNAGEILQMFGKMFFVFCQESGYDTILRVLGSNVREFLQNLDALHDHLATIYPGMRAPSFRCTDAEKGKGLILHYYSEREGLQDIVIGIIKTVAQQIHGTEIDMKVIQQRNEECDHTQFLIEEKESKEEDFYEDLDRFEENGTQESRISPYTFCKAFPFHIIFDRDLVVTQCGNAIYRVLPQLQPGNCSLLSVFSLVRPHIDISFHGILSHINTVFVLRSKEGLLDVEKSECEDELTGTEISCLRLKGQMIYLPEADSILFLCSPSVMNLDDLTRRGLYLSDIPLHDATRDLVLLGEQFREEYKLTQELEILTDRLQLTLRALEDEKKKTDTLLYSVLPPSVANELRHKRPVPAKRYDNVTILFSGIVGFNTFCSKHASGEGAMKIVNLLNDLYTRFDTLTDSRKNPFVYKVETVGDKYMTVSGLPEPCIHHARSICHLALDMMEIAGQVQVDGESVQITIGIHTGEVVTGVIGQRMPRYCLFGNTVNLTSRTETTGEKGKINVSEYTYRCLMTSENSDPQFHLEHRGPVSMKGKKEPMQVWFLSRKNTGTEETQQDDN
T1 sequence (A0ACM8Q7I6 1-688): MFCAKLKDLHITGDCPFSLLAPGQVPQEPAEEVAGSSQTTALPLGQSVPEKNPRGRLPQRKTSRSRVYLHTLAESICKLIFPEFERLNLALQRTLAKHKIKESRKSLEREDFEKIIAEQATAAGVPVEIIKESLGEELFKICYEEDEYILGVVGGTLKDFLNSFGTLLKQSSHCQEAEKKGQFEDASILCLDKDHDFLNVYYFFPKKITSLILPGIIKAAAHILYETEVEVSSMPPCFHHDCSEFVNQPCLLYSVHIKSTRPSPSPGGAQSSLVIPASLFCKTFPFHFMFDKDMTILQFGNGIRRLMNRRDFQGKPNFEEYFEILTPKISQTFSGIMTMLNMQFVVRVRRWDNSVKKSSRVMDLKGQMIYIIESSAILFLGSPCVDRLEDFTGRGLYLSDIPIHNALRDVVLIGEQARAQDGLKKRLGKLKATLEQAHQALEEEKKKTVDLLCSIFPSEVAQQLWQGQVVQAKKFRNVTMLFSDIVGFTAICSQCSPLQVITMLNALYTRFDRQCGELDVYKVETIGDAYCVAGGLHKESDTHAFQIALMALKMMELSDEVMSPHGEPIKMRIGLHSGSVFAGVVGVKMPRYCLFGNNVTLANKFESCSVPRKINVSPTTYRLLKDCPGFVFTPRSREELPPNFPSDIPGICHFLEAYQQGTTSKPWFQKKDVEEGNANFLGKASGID
Procedure: (§1) To determine the cardiovascular action, the following investigations were carried out: in in vitro investigations on cells of vascular origin, the influence on guanylate cyclase-dependent cGMP formation was tested with and without NO donors. The vasorelaxant action was determined on rabbit aorta rings precontracted with phenylephrine. The hypotensive action was investigated in anaesthetized rats.
Stimulation of Soluble Guanylate Cyclase in Primary Endothelial Cells
Primary endothelial cells were isolated from pig aortas by treatment with collagenase soln. The cells were then cultured in culture medium until confluence was achieved. For the investigations, the cells were passaged, inoculated into cell culture plates and subcultured until confluence was achieved. To stimulate the endothelial guanylate cyclase, the culture medium was aspirated and the cells were washed once with Ringer's solution and incubated in stimulation buffer with or without NO donor (sodium nitroprusside, SNP, 1 μM). Following this, the test substances (final concentration 1 μM) were then pipetted onto the cells. After the end of the incubation time of 10 minutes, the buffer solution was aspirated and the cells were lysed at -20° C. for 16 hours. The intracellular cGMP was then determined radioimmunologically.

[2] = test system: rabbit aorta rings; assay: Vasorelaxant action in vitro (aorta rings precontracted with phenylephrine); conditions: Oryctolagus cuniculus; isolated rabbit aorta, phenylephrine contraction, 37° C., reduction of control contraction by 50%; read-out: Aorta IC 50
Procedure: as §1
Vasorelaxant Action in vitro
1.5 mm wide rings of an isolated rabbit aorta are placed individually under a pretension into 5 ml organ baths containing carbogen-aerated Krebs-Henseleit solution at a temperature of 37° C. The contractile force is amplified and digitalized, and recorded in parallel on a linear recorder. To generate a contraction, phenylephrine is added to the bath cumulatively in increasing concentration.
After several control cycles, the substance to be investigated is investigated in each further passage in increasing dose in each case and the contraction is compared with the height of the contraction achieved in the last previous passage. From this, the concentration is calculated which is necessary to reduce the height of the control value by 50% (IC50). The standard administration volume is 5 μl.

[3] = test system: anaesthetized rats; assay: Blood pressure measurements on anaesthetized rats; assay type: in vivo; conditions: anaesthetized male Wistar rats; for Max. blood pressure decrease: time 60 min
Procedure: as §1
Blood Pressure Measurements on Anaesthetized Rats
Male Wistar rats having a body weight of 300-350 g are anaesthetized with thiopental (100 mg/kg i.p.). After tracheotomy, a catheter is inserted in the femoral artery for blood pressure measurement. The substances to be tested are administered orally in various doses as a suspension in Tylose solution by means of stomach tube.

OCc1ccc(-c2nn(Cc3ccccc3F)c3ccccc23)o1 [Example 1, 1-(2-Fluorobenzyl)-3-(5-hydroxymethylfuran-2-yl)-indazole]
activation at 1 µM [1]: > 1000% | IC50 [2]: 4.1 µM | Time (of max. blood pressure decrease table) ([3]; 10 mg/kg oral): 60 min | Max. blood pressure decrease ([3]; 10 mg/kg oral): -14 mm Hg | Time (of max. blood pressure decrease table) ([3]; 30 mg/kg oral): 60 min | Max. blood pressure decrease ([3]; 30 mg/kg oral): -18 mm Hg

COc1cccc(Cn2nc(-c3ccc(CO)o3)c3ccccc32)c1 [Example 2]
activation at 1 µM [1]: 72%

OCc1ccc(-c2nn(Cc3ccc(F)cc3)c3ccccc23)o1 [Example 3]
activation at 1 µM [1]: 250% | IC50 [2]: 16 µM

OCc1ccc(-c2nn(Cc3cccc(F)c3)c3ccccc23)o1 [Example 4]
activation at 1 µM [1]: 413% | IC50 [2]: 9.2 µM

OCc1ccc(-c2nn(Cc3ccccc3F)c3cc(F)ccc23)o1 [Example 7]
activation at 1 µM [1]: 734%

COc1cccc(Cn2nc(-c3ccc(CO)o3)c3ccc(F)cc32)c1 [Example 8]
activation at 1 µM [1]: 28%

Cc1ccc(-c2nn(Cc3ccccc3)c3ccccc23)o1 [Example 10]
activation at 1 µM [1]: 238%

OCc1ccc(-c2nn(Cc3ccccc3)c3ccccc23)s1 [Example 11]
activation at 1 µM [1]: 14%

OCc1ccc(-c2nn(Cc3ccccc3)c3ccccc23)o1 [Example 14, reference compound]
activation at 1 µM [1]: > 906% | IC50 [2]: 10 µM | Time (of max. blood pressure decrease table) ([3]; 10 mg/kg oral): 60 min | Max. blood pressure decrease ([3]; 10 mg/kg oral): -10 mm Hg | Time (of max. blood pressure decrease table) ([3]; 30 mg/kg oral): 60 min | Max. blood pressure decrease ([3]; 30 mg/kg oral): -18 mm Hg
